Here are results for one compound from publication PMC8562569 (Nature cancer, 2021).

In the test the target is PIKfyve (Homo sapiens, UniProt Q9Y2I7). Briefly: cellular thermal shift assay in VCaP cells, […], […] h. It counts as cell-based.
Sequence of PIKfyve (Q9Y2I7 2-2098): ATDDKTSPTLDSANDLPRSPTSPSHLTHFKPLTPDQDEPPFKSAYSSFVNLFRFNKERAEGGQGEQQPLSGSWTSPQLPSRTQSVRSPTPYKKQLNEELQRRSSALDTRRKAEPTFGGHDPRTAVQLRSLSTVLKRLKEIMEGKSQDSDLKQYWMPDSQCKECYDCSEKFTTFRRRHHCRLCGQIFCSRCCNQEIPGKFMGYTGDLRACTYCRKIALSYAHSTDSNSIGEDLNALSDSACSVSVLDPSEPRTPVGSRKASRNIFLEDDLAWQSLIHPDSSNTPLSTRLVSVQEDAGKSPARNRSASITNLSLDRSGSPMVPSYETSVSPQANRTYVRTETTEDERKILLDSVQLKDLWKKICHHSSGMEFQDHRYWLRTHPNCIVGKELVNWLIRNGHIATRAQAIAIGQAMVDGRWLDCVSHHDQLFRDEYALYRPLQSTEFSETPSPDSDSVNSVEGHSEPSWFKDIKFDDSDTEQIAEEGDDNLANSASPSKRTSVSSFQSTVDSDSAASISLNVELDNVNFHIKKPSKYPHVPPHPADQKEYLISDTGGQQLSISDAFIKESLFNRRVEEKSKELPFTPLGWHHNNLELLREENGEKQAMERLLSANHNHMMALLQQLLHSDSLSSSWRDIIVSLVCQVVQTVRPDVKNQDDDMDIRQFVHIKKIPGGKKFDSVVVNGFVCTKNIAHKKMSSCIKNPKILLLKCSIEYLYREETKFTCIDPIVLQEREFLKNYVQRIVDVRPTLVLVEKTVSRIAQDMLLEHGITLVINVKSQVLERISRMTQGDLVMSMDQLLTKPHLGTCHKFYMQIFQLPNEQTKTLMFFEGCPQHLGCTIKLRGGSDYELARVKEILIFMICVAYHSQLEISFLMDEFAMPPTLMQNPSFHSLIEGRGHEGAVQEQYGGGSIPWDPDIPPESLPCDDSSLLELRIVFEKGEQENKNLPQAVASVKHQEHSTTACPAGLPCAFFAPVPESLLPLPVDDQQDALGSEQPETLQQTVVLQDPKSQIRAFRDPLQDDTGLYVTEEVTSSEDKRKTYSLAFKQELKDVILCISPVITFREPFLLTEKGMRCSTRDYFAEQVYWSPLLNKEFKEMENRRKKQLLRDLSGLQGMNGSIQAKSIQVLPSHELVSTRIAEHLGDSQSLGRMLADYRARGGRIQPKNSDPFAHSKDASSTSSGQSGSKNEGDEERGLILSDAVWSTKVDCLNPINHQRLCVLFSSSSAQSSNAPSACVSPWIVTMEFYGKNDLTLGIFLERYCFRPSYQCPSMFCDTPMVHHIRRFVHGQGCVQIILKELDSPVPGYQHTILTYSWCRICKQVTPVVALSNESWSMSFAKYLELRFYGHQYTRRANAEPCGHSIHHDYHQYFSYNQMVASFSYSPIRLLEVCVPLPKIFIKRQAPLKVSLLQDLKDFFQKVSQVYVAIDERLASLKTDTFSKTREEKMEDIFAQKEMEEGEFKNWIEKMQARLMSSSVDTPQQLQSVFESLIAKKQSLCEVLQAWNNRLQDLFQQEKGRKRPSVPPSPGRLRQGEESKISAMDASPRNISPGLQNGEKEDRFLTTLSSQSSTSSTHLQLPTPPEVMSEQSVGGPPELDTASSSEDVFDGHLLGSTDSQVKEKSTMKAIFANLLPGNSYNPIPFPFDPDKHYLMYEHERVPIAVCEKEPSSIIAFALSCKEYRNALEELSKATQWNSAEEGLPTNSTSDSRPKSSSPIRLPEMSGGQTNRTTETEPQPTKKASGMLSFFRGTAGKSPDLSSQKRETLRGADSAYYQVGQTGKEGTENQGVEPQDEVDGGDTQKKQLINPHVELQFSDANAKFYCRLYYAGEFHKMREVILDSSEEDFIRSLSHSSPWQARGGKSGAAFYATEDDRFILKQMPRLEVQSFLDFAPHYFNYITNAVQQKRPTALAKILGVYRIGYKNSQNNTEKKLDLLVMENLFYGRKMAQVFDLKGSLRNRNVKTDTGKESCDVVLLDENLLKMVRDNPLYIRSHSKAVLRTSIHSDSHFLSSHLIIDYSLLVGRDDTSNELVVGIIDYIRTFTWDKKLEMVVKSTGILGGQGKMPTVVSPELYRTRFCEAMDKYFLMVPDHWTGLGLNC

Consider `Cc1cccc(/C=N/Nc2cc(N3CCOCC3)nc(OCCc3ccccn3)n2)c1` [apilimod], for which the “cellular thermal shift assay in VCaP cells, 1 μM, 2 h” value is reported as “cellular thermal shift assay in VCaP cells, with the known PIKfyve inhibitor apilimod serving as a positive control”.
